Assay results taken from US20220370416A1, “COMPOUNDS AND METHODS FOR TARGETED DEGRADATION OF KRAS” (Arvinas Operations, Inc., priority 2020, published 2022).
Each block holds one molecule with its values, some of them ahead of it.

Molecular target: HiBit-KRAS^G12C (Homo sapiens, UniProt P01116, G12C)
Assay: HiBit degradation assay in SW1573 HiBit-KRas^G12C cells
Type: cell-based
Design: expressed in transfected cells; host or cells: SW1573 (clone E6), modified pcDNA3.1 vector, TK promoter
Settings: 0.1% DMSO, 24 hours; for DC50: SW1573 HiBit-KRas^G12C, read-out: KRas^G12C-HIBit (SW1573; 0.1% DMSO) DC50*; for Dmax: SW1573, SW1573 HiBit-KRas^G12C, read-out: KRas^G12C-HiBit (SW1573; 0.1% DMSO) Dmax**
Experimental: Reagents. SW1573 (CRL-2170) and MiaPaCa-2 (CRL-1420) cells were purchased from ATCC. Both cell lines are […] for the G12C mutation in KRAS. SW1573 cells were cultured in DMEM+F12+Glutamax (+Sodium Bicarbonate, +sodium pyruvate, Thermofisher scientific, #10565) supplemented with 10% FBS (Thermofisher scientific, #2060357) and 1% Antibiotic-Antimycotic (Thermofisher scientific, #15240096). MiaPaCa-2 cells were cultured in DMEM+Glutamax media (Thermofisher scientific, #10566) supplemented with 10% FBS (Thermofisher scientific, #2060357) and 1% Antibiotic-Antimycotic (Thermofisher scientific, #15240096). For degradation assays, 384 well plates were purchased from Corning (Corning® CellBIND® 384-well Flat Clear Bottom Black Polystyrene Microplates, Low Flange, #3770). Gambogic acid was purchased from Selleckchem (#S2448). Alamar blue was purchased from Thermofisher scientific (A50101) and used according to manufacturer instructions. The Nano-Glo® HiBit Lytic Detection System and Nano-Glo® HiBit Blotting System were purchased from Promega (#N3050 and #N2410) and used according to manufacturer instructions.
To create the SW1573 HiBit-KRAS^G12C cell line, the nucleotide sequence encoding the 11 amino acid HiBit tag from Promega (Schwinn, M. K. et al. (2018) CRISPR-mediated tagging of endogenous proteins with a luminescent peptide. ACS Chem. Biol. 13(2), 467-474) was appended to the N-terminus of the KRAS^G12C coding sequence. This synthesized DNA was cloned into a modified pcDNA3.1 vector under the control of the thymidine kinase (TK) promoter. This HiBit-KRAS^G12C expressing plasmid was transfected into parental SW1573 cells and colonies were selected using 400 μg/mL zeocin. The resulting clonal lines were screened for expression of HiBit-KRAS^G12C protein using Nano-Glo® HiBit Blotting System. A luminescent band of the correct size for HiBit-KRAS^G12C was detected in several clones. Clone E6 was selected for further studies.
Either SW1573 HiBit-KRas^G12C or MiaPaCa-2 HiBit-KRas^G12C cells were plated at 9000 cells/well in a 384 well plate (Corning #3770). Exemplary heterobifunctional molecules and positive controls were diluted in the appropriate cell media and applied to the plated cells resulting in a final concentration titration of 10 μM to 20 nM in either 0.1% or 0.5% dimethyl sulfoxide (DMSO). Gambogic acid was used as a positive control for cytotoxicity and titrated from 10 μM to 78 nM. All assays were performed in triplicate. Cells were treated with compounds for 24 hours at 37° C. in an incubator containing 5% CO2. Following treatment, alamar blue was used to determine if any compounds led to a loss in cell viability after 24 hours. The 10× alamar blue reagent was added to a final concentration of 1× as recommended by the manufacturer and cells were returned to the incubator for 4 hours. Plates were then allowed to equilibrate to room temperature and fluorescence was measured using a Perkin-Elmer EnVision. After completion of the fluorescence read, the liquid from each well was removed and the cells were washed with PBS. The Nano-Glo® HiBiT detection reagent was prepared according to the manufacturer's instructions and added to each well after the PBS wash was removed. Following incubation at room temperature for 45 minutes, the luminescence was read using the ultra-sensitive luminescence aperture on the Envision instrument.
Fluorescence values from the alamar blue treatment were normalized to the DMSO only control for each compound titration. We hypothesized that compounds that led to a ≥50% loss in cell viability of the KRAS-independent SW1573 HiBit-KRas^G12C cells were likely generally cytotoxic and loss of HiBit-KRAS^G12C signal from these compounds may be due to lower cell number and not specific KRAS^G12C degradation. These points were therefore excluded from the data analysis for degradation. […]

HiBit-KRAS^G12C, sequence (P01116 1-186 isoform P01116-2 G12C limits assumed): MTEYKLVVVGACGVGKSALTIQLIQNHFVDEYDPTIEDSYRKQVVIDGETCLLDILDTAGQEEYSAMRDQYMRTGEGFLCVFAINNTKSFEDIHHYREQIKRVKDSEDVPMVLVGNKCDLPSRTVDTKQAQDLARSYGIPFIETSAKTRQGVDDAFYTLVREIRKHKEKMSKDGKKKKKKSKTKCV

- DC50: > 1000 nM
Structure (SMILES): C=CC(=O)N1CCN(c2nc(OCCN3CCC(OCCOc4cc([C@H](C(=O)N5C[C@@H](O)C[C@H]5C(=O)N[C@@H](C)c5ccc(-c6scnc6C)cc5)C(C)C)on4)CC3)nc3c(F)c(-c4cc(O)cc5ccccc45)c(Cl)cc23)C[C@@H]1CC#N [Compound 2, (2S,4S)-1-[(2R)-2-{3-[2-({1-[2-({6-chloro-4-[(3S)-3-(cyanomethyl)-4-(prop-2-enoyl)piperazin-1-yl]-8-fluoro-7-(3-hydroxynaphthalen-1-yl)quinazolin-2-yl}oxy)ethyl]piperidin-4-yl}oxy)ethoxy]-1,2-oxazol-5-yl}-3-methylbutanoyl]-4-hydroxy-N-[(1S)-1-[4-(4-methyl-1,3-thiazol-5-yl)phenyl]ethyl]pyrrolidine-2-carboxamide]

- DC50: > 1000 nM
Structure (SMILES): C=C(F)C(=O)N1CCN(c2nc(O[C@H](C)CN3CCC(COc4cc([C@H](C(=O)N5C[C@H](O)C[C@H]5C(=O)N[C@@H](C)c5ccc(-c6scnc6C)cc5)C(C)C)on4)CC3)nc3c(F)c(-c4cc(O)cc5ccccc45)c(Cl)cc23)CC1 [Compound 14, (2S,4R)-1-[(2R)-2-[3-({1-[(2R)-2-({6-chloro-8-fluoro-4-[4-(2-fluoroprop-2-enoyl)piperazin-1-yl]-7-(3-hydroxynaphthalen-1-yl)quinazolin-2-yl}oxy)propyl]piperidin-4-yl}methoxy)-1,2-oxazol-5-yl]-3-methylbutanoyl]-4-hydroxy-N-[(1S)-1-[4-(4-methyl-1,3-thiazol-5-yl)phenyl]ethyl]pyrrolidine-2-carboxamide]

- DC50: > 1000 nM
Structure (SMILES): C=CC(=O)N1CCN(c2nc(O[C@H](C)CN3CCC(COc4cc([C@H](C(=O)N5C[C@H](O)C[C@H]5C(=O)N[C@@H](C)c5ccc(-c6scnc6C)cc5)C(C)C)on4)CC3)nc3c(F)c(-c4cc(O)cc5ccccc45)c(Cl)cc23)CC1 [Compound 19, (2S,4R)-1-[(2R)-2-[3-({1-[(2R)-2-{[6-chloro-8-fluoro-7-(3-hydroxynaphthalen-1-yl)-4-[4-(prop-2-enoyl)piperazin-1-yl]quinazolin-2-yl]oxy}propyl]piperidin-4-yl}methoxy)-1,2-oxazol-5-yl]-3-methylbutanoyl]-4-hydroxy-N-[(1S)-1-[4-(4-methyl-1,3-thiazol-5-yl)phenyl]ethyl]pyrrolidine-2-carboxamide]

The next lines start with the molecule.

Structure (SMILES): C=CC(=O)N1CCN(c2nc(O[C@H](C)CN3CCC(CN(C)[C@H]4C[C@@H](OCC(=O)N[C@H](C(=O)N5C[C@H](O)C[C@H]5C(=O)N[C@@H](C)c5ccc(-c6scnc6C)cc5)C(C)(C)C)C4)CC3)nc3c(F)c(-c4cc(O)cc5ccccc45)c(Cl)cc23)CC1 [Compound 47, (2S,4R)-1-[(2S)-3,3-dimethyl-2-(2-[(1s,3s)-3-[({1-[(2R)-2-{[6-chloro-8-fluoro-7-(3-hydroxynaphthalen-1-yl)-4-[4-(prop-2-enoyl)piperazin-1-yl]quinazolin-2-yl]oxy}propyl]piperidin-4-yl}methyl)(methyl)amino]cyclobutoxy]acetamido}butanoyl]-4-hydroxy-N-[(1S)-1-[4-(4-methyl-1,3-thiazol-5-yl)phenyl]ethyl]pyrrolidine-2-carboxamide]
- DC50: > 1000 nM

Structure (SMILES): C=CC(=O)N1CCN(c2nc(O[C@H](C)CN3CCC(OCCOCCOCCOCCOCCOc4cc(-c5scnc5C)ccc4CNC(=O)[C@@H]4C[C@@H](O)CN4C(=O)[C@@H](c4cc(C)no4)C(C)C)CC3)nc3c(F)c(-c4cc(O)cc5ccccc45)c(Cl)cc23)CC1 [Compound 80]
- Dmax: 35 to 70%
- DC50: > 1000 nM

Structure (SMILES): C=CC(=O)N1CCN(c2nc(O[C@H](C)CN3CCC(OCCOCC(=O)N[C@H](C(=O)N4C[C@H](O)C[C@H]4C(=O)N[C@@H](C)c4ccc(-c5scnc5C)cc4)C(C)(C)C)CC3)nc3c(F)c(-c4cc(O)cc5ccccc45)c(Cl)cc23)CC1 (atropisomer, axis not shown) [Compound 85, (2S,4R)-1-[(2S)-2-{2-[2-({1-[(2R)-2-{[6-chloro-8-fluoro-7-(3-hydroxynaphthalen-1-yl)-4-[4-(prop-2-enoyl)piperazin-1-yl]quinazolin-2-yl]oxy}propyl]piperidin-4-yl}oxy)ethoxy]acetamido}-3,3-dimethylbutanoyl]-4-hydroxy-N-[(1S)-1-[4-(4-methyl-1,3-thiazol-5-yl)phenyl]ethyl]pyrrolidine-2-carboxamide]
- DC50: > 1000 nM

Structure (SMILES): C=CC(=O)N1CCN(c2nc(OCCN3CCC(COCC(=O)N[C@H](C(=O)N4C[C@H](O)C[C@H]4C(=O)N[C@@H](C)c4ccc(-c5scnc5C)cc4)C(C)(C)C)CC3)nc3c(F)c(-c4cc(O)cc5ccccc45)c(Cl)cc23)CC1 (atropisomer, axis not shown) [Compound 10, (2S,4R)-1-[(2S)-2-(2-{[1-(2-{[6-chloro-8-fluoro-7-(3-hydroxynaphthalen-1-yl)-4-[4-(prop-2-enoyl)piperazin-1-yl]quinazolin-2-yl]oxy}ethyl)piperidin-4-yl]methoxy}acetamido)-3,3-dimethylbutanoyl]-4-hydroxy-N-[(1S)-1-[4-(4-methyl-1,3-thiazol-5-yl)phenyl]ethyl]pyrrolidine-2-carboxamide]
- DC50: > 1000 nM

Structure (SMILES): C=CC(=O)N1CCN(c2nc(OC[C@@H]3C[C@@H](OCCOCCOCCOCCOCCOCCOCCOCCOCCOCCOCC(=O)N[C@H](C(=O)N4C[C@H](O)C[C@H]4C(=O)N[C@@H](C)c4ccc(-c5scnc5C)cc4)C(C)(C)C)CN3C)nc3c2CCN(c2cccc4ccccc24)C3)C[C@@H]1CC#N [Compound 73, (2S,4R)-1-[(2S)-2-(32-{[(3R,5S)-5-[({4-[(3S)-3-(cyanomethyl)-4-(prop-2-enoyl)piperazin-1-yl]-7-(naphthalen-1-yl)-5H,6H,7H,8H-pyrido[3,4-d]pyrimidin-2-yl}oxy)methyl]-1-methylpyrrolidin-3-yl]oxy}-3,6,9,12,15,18,21,24,27,30-decaoxadotriacontanamido)-3,3-dimethylbutanoyl]-4-hydroxy-N-[(1S)-1-[4-(4-methyl-1,3-thiazol-5-yl)phenyl]ethyl]pyrrolidine-2-carboxamide]
- DC50: > 1000 nM

Structure (SMILES): C=CC(=O)N1CCN(c2nc(O[C@H](C)CN3CCC(OCCOCCOc4cc(-c5scnc5C)ccc4CNC(=O)[C@@H]4C[C@@H](O)CN4C(=O)[C@H](c4cc(C)no4)C(C)C)CC3)nc3c(F)c(-c4cc(O)cc5ccccc45)c(Cl)cc23)CC1 [Compound 71, (2S,4R)-N-[(2-{2-[2-({1-[(2R)-2-{[6-chloro-8-fluoro-7-(3-hydroxynaphthalen-1-yl)-4-[4-(prop-2-enoyl)piperazin-1-yl]quinazolin-2-yl]oxy}propyl]piperidin-4-yl}oxy)ethoxy]ethoxy}-4-(4-methyl-1,3-thiazol-5-yl)phenyl)methyl]-4-hydroxy-1-[(2S)-3-methyl-2-(3-methyl-1,2-oxazol-5-yl)butanoyl]pyrrolidine-2-carboxamide]
- Dmax: < 35%
- DC50: 100 to 1000 nM
